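Method: 48-hour compound exposure of cells in 96-well plates, five concentrations, linear interpolation of endpoints. The concentration for 50% growth inhibition is given as GI50.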 The source made the active and inactive calls. No stated cut-off is given here; in the data, active = GI50 up to about 1.1 µM and inactive = higher.
Legend:
Assay in all cases: NCI tumour cell line growth inhibition, 48 h
A549 = tested on: A549
ACHN = tested on: ACHN
CAKI-1 = tested on: CAKI-1
EKVX = tested on: EKVX
HCT-116 = tested on: HCT-116
MCF7 = tested on: MCF7
MDA-N = tested on: MDA-N
Malme-3M = tested on: Malme-3M
NCI-H460 = tested on: NCI-H460
NCI/ADR-RES = tested on: NCI/ADR-RES
SF-268 = tested on: SF-268
SF-295 = tested on: SF-295
SK-MEL-5 = tested on: SK-MEL-5
SR = tested on: SR
SW-620 = tested on: SW-620
T47D = tested on: T47D
U-251 = tested on: U-251
UACC-257 = tested on: UACC-257
SF-539 = tested on: SF-539

Measured: GI50

O=C(N/N=C/c1ccc(Cl)cc1)c1ccccc1Nc1ccccc1C(=O)N/N=C/c1ccc(Cl)cc1
inactive: A549 88.7 µM | ACHN > 100 µM | CAKI-1 > 100 µM | EKVX > 100 µM | HCT-116 > 100 µM | MCF7 > 100 µM | MDA-N > 100 µM | Malme-3M 64.4 µM | NCI-H460 > 100 µM | NCI/ADR-RES > 100 µM | SF-268 > 100 µM | SF-295 54 µM | SK-MEL-5 > 100 µM | SR > 100 µM | SW-620 > 100 µM | T47D > 100 µM | U-251 > 100 µM | UACC-257 > 100 µM

CCOC(=O)Cn1nc2ccc(Nc3c(C)[n+]([O-])c4cc(F)c(OCC)cc4[n+]3[O-])cc2n1
inactive: ACHN 22.4 µM | CAKI-1 > 100 µM | EKVX > 100 µM | HCT-116 > 100 µM | MCF7 > 100 µM | MDA-N > 100 µM | NCI-H460 > 100 µM | NCI/ADR-RES > 100 µM | SF-268 50.9 µM | SF-295 44.2 µM | SF-539 83 µM | SK-MEL-5 > 100 µM | SR > 100 µM | SW-620 > 100 µM | T47D > 100 µM | U-251 37.5 µM | UACC-257 > 100 µM

CCC(C)C1(O)OC2CC3(C)OC(=CC3=O)/C(C)=C\C3OC(=O)C1(C)C32 (stereo not drawn)
inactive: A549 24.8 µM | ACHN 9.14 µM | CAKI-1 14.4 µM | EKVX 12.7 µM | HCT-116 6.47 µM | MCF7 9.77 µM | MDA-N 1.73 µM | NCI-H460 14.2 µM | NCI/ADR-RES 17.2 µM | SF-268 13.9 µM | SF-295 20.5 µM | SF-539 22.3 µM | SK-MEL-5 10.5 µM | SR 5 µM | SW-620 3.37 µM | T47D 15 µM | U-251 27.5 µM | UACC-257 7.01 µM

[N-]=[N+]=Nc1cc(=O)n2c3c(cccc13)CCC2
inactive: A549 > 100 µM | ACHN > 100 µM | EKVX 43.7 µM | HCT-116 > 100 µM | MCF7 > 100 µM | MDA-N > 100 µM | Malme-3M > 100 µM | NCI-H460 > 100 µM | NCI/ADR-RES > 100 µM | SF-268 > 100 µM | SF-295 > 100 µM | SF-539 > 100 µM | SR > 100 µM | SW-620 > 100 µM | T47D > 100 µM | U-251 > 100 µM | UACC-257 > 100 µM

C=C(C)CNC(=S)N(N)c1ccc(OC)cc1
inactive: A549 > 100 µM | ACHN 39.2 µM | EKVX 82.2 µM | HCT-116 > 100 µM | MCF7 > 100 µM | MDA-N 99.3 µM | Malme-3M > 100 µM | NCI-H460 > 100 µM | NCI/ADR-RES > 100 µM | SF-268 55.3 µM | SF-295 > 100 µM | SF-539 > 100 µM | SK-MEL-5 > 100 µM | SR > 100 µM | SW-620 > 100 µM | T47D > 100 µM | U-251 > 100 µM | UACC-257 > 100 µM
